From ChEMBL document CHEMBL5725882, “Imide and acylurea derivatives as modulators of the glucocorticoid receptor” (2017) come the findings set out here.

What is called Ki is the dissociation constant of the complex between target and ligand, obtained from inhibition or displacement.

The target of the experiment is T1, Glucocorticoid receptor (Homo sapiens, UniProt P04150).
T1 sequence (P04150 whole entry): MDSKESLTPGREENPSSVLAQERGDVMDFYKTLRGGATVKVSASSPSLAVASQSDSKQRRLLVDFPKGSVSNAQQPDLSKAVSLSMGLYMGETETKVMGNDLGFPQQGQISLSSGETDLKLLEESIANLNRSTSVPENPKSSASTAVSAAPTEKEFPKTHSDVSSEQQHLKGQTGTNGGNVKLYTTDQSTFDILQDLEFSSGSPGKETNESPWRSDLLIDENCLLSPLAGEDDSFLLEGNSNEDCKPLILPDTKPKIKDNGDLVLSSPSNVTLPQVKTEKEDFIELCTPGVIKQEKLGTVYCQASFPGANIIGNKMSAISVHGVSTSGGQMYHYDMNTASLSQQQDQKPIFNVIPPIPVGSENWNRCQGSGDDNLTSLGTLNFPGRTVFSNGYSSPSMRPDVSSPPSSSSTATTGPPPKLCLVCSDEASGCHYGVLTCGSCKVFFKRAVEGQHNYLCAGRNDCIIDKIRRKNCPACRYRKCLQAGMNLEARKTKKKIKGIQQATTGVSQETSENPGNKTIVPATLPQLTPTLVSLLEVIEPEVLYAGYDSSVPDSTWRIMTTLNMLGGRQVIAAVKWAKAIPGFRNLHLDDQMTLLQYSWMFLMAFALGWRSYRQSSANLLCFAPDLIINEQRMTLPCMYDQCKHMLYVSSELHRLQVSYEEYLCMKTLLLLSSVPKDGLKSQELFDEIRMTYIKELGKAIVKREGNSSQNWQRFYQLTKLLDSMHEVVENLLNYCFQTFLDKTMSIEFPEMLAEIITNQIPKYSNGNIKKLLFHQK
As to the kind of experiment: Briefly, purified human recombinant full-length glucocorticoid receptor (2 nM) was mixed with fluorescently labeled glucocorticoid (1 nM Fluormone GS Red) in the presence or absence of test compound. After two hour incubation at room temperature in the dark, the fluorescence polarization (FP) of the samples was measured. […] Test compounds were analyzed in the concentration range from 8.5E-05 μM to 5 μM. Binding Assay (II):In order to measure the binding of compounds on the glucocorticoid receptor a commercially available kit was used (Glucocorticoid receptor competitor assay kit, PanVera Co., Madison, Wis., P2816). Briefly, a cell lysate containing recombinantly expressed human full-length glucocorticoid receptor was mixed with a fluorescently labeled glucocorticoid (1 nM Fluormone GS1) in the presence or absence of test compound. After one hour at room temperature, the fluorescence polarization (FP) of the samples were measured. […] An appropriate cell lysate or purified NHR is used as the source of the NHR. The fluorescent probe and unlabeled competitor are appropriate for the specific NHR, i.e., are ligands for the specific NHR. Background: Polarisation of emitted light reports the rotation of a fluorescent probe.
On to `CC(=O)NC(=O)C(C)(C)[C@H]1c2ccccc2Oc2nc(-c3ccc(C(=O)N4CCOCC4)cc3)ccc21`, for which the Ki was 0.00701 µM.

For the compound `CCC(=O)NC(=O)C(C)(C)[C@@H]1c2ccc(-c3ccc(C(=O)N4CCOCC4)cc3)nc2Oc2c(F)cccc21`, the Ki came out at 0.0665 µM.

`CC(C)(O)c1ccc(-c2ccc3c(n2)Oc2c(F)cccc2[C@@H]3C(C)(C)C(=O)NC(N)=O)cc1`: the inhibitory constant (Ki) was 0.00032 µM. On to `CNC(=O)NC(=O)C(C)(C)[C@@H]1c2ccc(-c3ccc(C(C)(C)O)cc3)nc2Oc2c(F)cccc21`, for which the Ki was found to be 0.00142 µM. The figure for `COc1ccc2c(c1)Oc1ccccc1[C@@H]2C(C)(C)C(=O)NC(N)=O` is 0.00857 µM; for `CC(C)(C(=O)NC(=O)N1CCOCC1)[C@@H]1c2ccc(-c3ccc(C(=O)N4CCOCC4)cc3)nc2Oc2c(F)cccc21` it is 0.171 µM. The figure for `COC(=O)NC(=O)C(C)(C)[C@@H]1c2ccc(-c3ccc(C(=O)OC)cc3)nc2Oc2c(F)cccc21` is 0.00528 µM; for `CC(C)(O)c1ccc(-c2ccc3c(n2)Oc2c(F)cccc2[C@@H]3C(C)(C)C(=O)NC(=O)NCCO)cc1` it is 0.0251 µM; for `CC(C)(C(=O)NC(N)=O)[C@H]1c2ccccc2Oc2nc(-c3ccc(C(=O)N4CCOCC4)cc3)ccc21` it is 0.00181 µM. Next, `CC(C)NC(=O)NC(=O)C(C)(C)[C@@H]1c2ccc(-c3ccc(C(=O)N4CCOCC4)cc3)nc2Oc2c(F)cccc21`: 0.0324 µM; `CC(C)(C(=O)NC(=O)NCCO)[C@@H]1c2ccc(-c3ccc(C(=O)N4CCOCC4)cc3)nc2Oc2c(F)cccc21`: 0.0617 µM.

As to `CNC(=O)NC(=O)C(C)(C)[C@@H]1c2ccc(Cl)nc2Oc2c(F)cccc21`, the Ki stood at 0.0375 µM. Next, `CC(C)(O)CNC(=O)NC(=O)C(C)(C)[C@@H]1c2ccc(-c3ccc(C(C)(C)O)cc3)nc2Oc2c(F)cccc21`: 0.0208 µM.

For `CC(C)S(=O)(=O)c1ccc(-c2ccc3c(n2)Oc2ccccc2[C@@H]3C(C)(C)C(=O)NC(N)=O)cc1`, the Ki amounted to 0.00058 µM. The figure for `CC(=O)NC(=O)C(C)(C)[C@@H]1c2ccc(-c3ccc(C(=O)N(C)C)cc3)nc2Oc2c(F)cccc21` is 0.0935 µM. `CC(C)(O)CNC(=O)NC(=O)C(C)(C)[C@@H]1c2ccc(-c3ccc(C(=O)N4CCOCC4)cc3)nc2Oc2c(F)cccc21`: the inhibitory constant (Ki) came out at 0.0871 µM. Next, `CC(C)(C(=O)NC(N)=O)[C@@H]1c2ccc(-c3ccc(C(=O)N4CCC4)cc3)nc2Oc2c(F)cccc21`: 0.00093 µM.
